The text below walks through data of patent US20070014757A1, “Compositions and complexes containing a macromolecular compound as potential anti-inflammatory agents” (COUNCIL OF SCIENTIFIC AND INDUSTRIAL RESEARCH, priority 2002, published 2007).

Like-named read-outs stand apart in the source and are kept apart here.

In data set [1] the test system is cotton pellet granuloma in rats. Put plainly: Cotton pellet test in rats (sub-acute model). It counts as in vivo. To be noted: granuloma dry weight vs control, dosed once a day, day 1 to 7; I 1.4 mg/kg, D 12 mg/kg, DI 1.4 mg/kg I + 12 mg/kg D. As for the experimental part: Cotton pellet test in rats: Four autoclaved pellets of cotton weighing 10 mg±0.5 mg were implanted on the previously shaved groin and axilla (two cotton pellet in each) region of rats aseptically. The test formulations (D,I and DI) were fed once a day from 1 to 7 of the experiment. On the day 8 th, the rats were etherized by an overdose of ether and the pellets surrounded by granuloma tissue wre dissected out carefully and dried in a hot oven at 60° C. till a constant weight was obtained. Ulcers were not found in any of the case. After dissection various organs were removed, washed, dried and weighed and histopathology was carried out. No abnormalities were found after conducting the histopathology of liver, lung, kidney and spleen.
The subcutaneous implantation of cotton pellets provides inflammatory exudates that are easily processed. Implantation of cotton pellet triggers the series of cascade inflammatory reaction, leads to the migration of mediators of the inflammation in the zone of implantation.

Data set [2] deals with Adjuvant-induced arthritis in rats. Put plainly: Adjuvant-induced arthritis in rats (chronic model). It counts as in vivo. Conditions: foot swelling, daily dosing I 1 mg/kg, D 9 mg/kg, DI 1 mg/kg I + 9 mg/kg D. From the text: Rats were sacrificed. After dissection various organs were removed, washed, dried and weighed. Ulcers were not observed in any of the cases.
The body weight and feed intake of rats were monitored regularly. Weight gain has also been used as a parameter for assessing drug effectiveness.

The nature of data set [3]: Hematological parameters in arthritic rats (blood cell counter).
Description: (§1) Hematological parameters were determined by blood cell counter (Medonic CA 620).
Data set [4] can be described thus: Phase solubility study of indomethacin in aqueous dendrimer solutions. The class given is physicochemical. Conditions: indomethacin with PAMAM (fourth generation), 25° C. How it is done: Solubility studies were carried out as described by Higuchi and Connors with minor modifications.
Solubility phase diagram depicts the AN type of curve (FIG. 2), which represent a decreasing dependence on the ligand added at higher concentration. This type is comparatively least frequently encountered system, and its occurrence may be explained on the basis of self-association of the ligand at high concentration, which is in contrast to the curve reported by Emanuele et al, for dendrimer using ibuprofen. The negative slope in the curve may be due to the aggregation of dendrimer with the increasing concentration.

Data set [5] can be described thus: Comparative behavior of dendrimer and indomethacin at different pH (solubility). The class given is physicochemical. How it is done:
To study the comparative behavior of dendrimer and indometacin at different pH two possibilities were tried. […] The pH of the aqueous solutions of dendrimer was adjusted using 0.1 N HCl and 1M NaOH. […] To the aqueous solutions of various pH (pH-2, 4 7, 8 and 10), dendrimer was added at different percentage. (0.075, 0.15, 0.2). pH was measured in each case. […] The amines of dendrimer will show maximum ionization at acidic pH and minimum ionization at basic pH. […] (initial pH).

The conditions of data set [6]: rat, in vivo.
Description: as §1

For `COc1ccc2c(c1)c(CC(=O)O)c(C)n2C(=O)c1ccc(Cl)cc1` [I, Indomethacin], in data set [1], the “Mean Percentage Inhibition ± SE” value amounted to 22 ± 1.2%. The “Mean Percentage Inhibition ± SE” value in data set [2] (+1 day) stood at 17 ± 0.9%. Also, in data set [2] (+3 day), the “Mean Percentage Inhibition ± SE” value is on record as 18 ± 0.7%. In addition, in data set [2] (+5 day), the “Mean Percentage Inhibition ± SE” value is given as 9 ± 0.6%. Besides, the “Mean Percentage Inhibition ± SE” value in data set [2] (+7 day) came out at 9 ± 0.8%. For the same molecule, in data set [2] (+10 day), the “Mean Percentage Inhibition ± SE” value is 8 ± 0.6%. Moreover, in data set [2] (+12 day), the “Mean Percentage Inhibition ± SE” value amounted to 10 ± 0.9%. For the same molecule, the “Mean Percentage Inhibition ± SE” value in data set [2] (+14 day) was 11 ± 0.9%. Also, in data set [3], the Haematocrit worked out at 30.3%, the Hemoglobin concentration was determined as 11.6 gm/dl, the Large platelets is 8.05% and the “Mean Platelet Cell Volume” value worked out at 6.55 um^3. For the same molecule, in data set [3], the Mean cell hemoglobin is given as 19.9 pg, the “Mean cell hemoglobin concentration” value is 38.2 g/dL, the “Mean cell volume for red blood cell” value worked out at 52 um^3 and the Packed platelet volume is listed as 0.51%. In data set [3], the Platelet distribution width worked out at 8.63 um^3, the Platelets is 778 10^3\mm^3, the Red blood cell is listed as 5.87 10^6/mm^3 and the “Red cell distribution width” value was found to be 18.9%. Moreover, in data set [3], the “Red cell distribution width absolute” value came to 44.1 um^3 and the White blood cells is recorded as 8.85 10^3/mm^3. Further, in data set [4], the “type of phase solubility profile” value is on record as “AN type of solubility profile”. The “solubility of indomethacin on addition of dendrimer (in words)” value in data set [5] (case-A: filtered saturated solution of indomethacin) is given as “found to be decrease”. In data set [5] (case-B: suspension with un-dissolved drug, dendrimer 0.075%, 0.15%, 0.2%), the “solubility of indomethacin on addition of dendrimer (in words)” value was “further increased”.
As for “NH2 terminated PAMAM dendrimer (EDA core) generation 4”, in data set [6], the Haematocrit is recorded as 37.3%, the Hemoglobin concentration is reported as 11.3 gm/dl, the Large platelets came out at 7.75% and the “Mean Platelet Cell Volume” value is given as 6.5 um^3. Further, in data set [6], the Mean cell hemoglobin amounted to 18.9 pg, the “Mean cell hemoglobin concentration” value was 38 g/dL, the “Mean cell volume for red blood cell” value was found to be 49.7 um^3 and the Packed platelet volume was found to be 0.45%. Further, in data set [6], the Platelet distribution width is reported as 8.6 um^3, the Platelets was 700 10^3\mm^3, the Red blood cell was 6 10^6/mm^3 and the “Red cell distribution width” value is recorded as 14.9%. For the same molecule, in data set [6], the “Red cell distribution width absolute” value was found to be 36.3 um^3 and the White blood cells is 8.78 10^3/mm^3.
